Experimental data published in patent publication US8003659B2, “Macrocyclic serine protease inhibitors” (Indenix Pharmaceuticals, Inc., priority 2008, dated 2011).
Read-outs that look alike come from different tables or passages of the source.

Legend:
mutant protease D168A = assay: Resistance profile, mutant protease D168A; format: biochemical, HCV; conditions: ratio of inhibitory activity against mutant enzyme over non-mutant enzyme
Experimental: (§1) General procedure: Measurement of the inhibitory effect of compounds on HCV protease activity was performed with the SensoLyte™ 620 HCV Protease Assay kit from AnaSpec, Inc. (San Jose, Calif.) under conditions described by the supplier using 1.2 nM HCV NS3-NS4A protease, which was obtained according to Taremi et al. (Protein Science, 1998, 7, 2143-2149). The compounds were tested at a variety of concentrations in assay buffer containing a final DMSO concentration of 5%. Reactions were allowed to proceed for 60 min at room temperature and fluorescence measurements were recorded with a Tecan Infinity Spectrofluorimeter. The IC50 values were determined from the percent inhibition versus concentration data using a sigmoidal non-linear regression analysis based on four parameters with Tecan Magellan software.
(§2) Compounds were evaluated against three mutant proteases R155Q, A156S, and D168A, as summarized in Table 8, wherein A represents a value smaller than 1, and B represents a value between 1 to 10, and C represents a value greater than 10. The fold of change in inhibitory activity was determined by measuring the ratio of the inhibitory activity of a compound against a mutant enzyme over the inhibitory activity of the same compound against non-mutant enzyme. The inhibitory activity was determined using the procedure as described in Example 31.

genotype 1b replicon = assay: Antiviral activity in a genotype 1b replicon assay; format: cell-based, HCV; conditions: Hepatitis C virus
Experimental: General procedure: Huh-7 cells containing HCV Con1 subgenomic replicon (GS4.1 cells) were grown in Dulbecco's Modified Eagle Medium (DMEM) supplemented with 10% fetal bovine serum (FBS), 2 mM L-glutamine, 110 mg/L sodium pyruvate, 1× non-essential amino acids, 100 U/mL penicillin-streptomycin, and 0.5 mg/mL G418 (Invitrogen). For dose-response testing, the cells were seeded in 96-well plates at 7.5×10^3 cells/well in a volume of 50 μL, and incubated at 37° C./5% CO2. Three hours after plating, 50 μL of ten 2-fold serial dilutions of compounds (highest concentration, 75 μM) were added, and cell cultures were incubated at 37° C./5% CO2 in the presence of 0.5% DMSO. Alternatively, compounds were tested at a single concentration of 15 μM. In all cases, Huh-7 cells lacking the HCV replicon served as negative control. The cells were incubated in the presence of compounds for 72 hr after which they were monitored for expression of the NS4A protein by enzyme-linked immunosorbent assay (ELISA). For this, the plates were then fixed for 1 min with acetone/methanol (1:1, v/v), washed twice with phosphate-buffered saline (PBS), 0.1% Tween 20, blocked for 1 hr at room temperature with TNE buffer containing 10% FBS and then incubated for 2 hr at 37° C. with the anti-NS4A mouse monoclonal antibody A-236 (ViroGen) diluted in the same buffer. After washing three times with PBS, 0.1% Tween 20, the cells were incubated 1 hr at 37° C. with anti-mouse immunoglobulin G-peroxidase conjugate in TNE, 10% FBS. After washing as described above, the reaction was developed with O-phenylenediamine (Zymed). The reaction was stopped after 30 min with 2 NH2SO4, and absorbance was read at 492 nm using Sunrise Tecan spectrophotometer. EC50 values were determined from the % inhibition versus concentration data using a sigmoidal non-linear regression analysis based on four parameters with Tecan Magellan software. When screening at a single concentration, the results were expressed as % inhibition at 15 μM.
(§3) Compounds were tested in a genotype 1b replicon assay as described in Example 32 and the results are summarized in Table 6, wherein A represents a value smaller than 1 μM, and B represents a value between 1 μM to 10 μM, C represents a value between 10 μM to 75 μM and D represents a value greater than 75 μM.

[1] = Cytotoxicity (CC50) in the genotype 1b replicon assay; format: cell-based; conditions: human, genotype 1b replicon assay as described in Example 32
Experimental: (§4) For cytotoxicity evaluation, GS4.1 cells were treated with compounds as described above and cellular viability was monitored using the Cell Titer 96 AQueous One Solution Cell Proliferation Assay (Promega). CC50 values were determined from the % cytotoxicity versus concentration data with Tecan Magellan software as described above.
as §3

mutant protease A156S = assay: Resistance profile, mutant protease A156S; format: biochemical, HCV; conditions: ratio of inhibitory activity against mutant enzyme over non-mutant enzyme
Experimental: as §1, §2

[2] = Cytotoxicity evaluation (Cell Titer 96 AQueous One Solution Cell Proliferation Assay); format: cell-based; conditions: human; GS4.1 cells, cellular viability
Experimental: as §4

[3] = system: HCV genotype 2a infectious virus; assay: HCV genotype 2a infectious virus assay; format: cell-based, HCV (strain JFH-1; genotype 2a); conditions: Hepatitis C virus
Experimental: Compounds were tested in a HCV genotype 2a infectious virus assay and the results are summarized in Table 7, wherein A represents a value smaller than 1 μM, and B represents a value between 1 μM to 10 μM, C represents a value between 10 μM to 75 μM and D represents a value greater than 75 μM.
The HCV in vitro infection core ELISA assay measures the ability of a test compound to inhibit replication of an infectious HCV (strain JFH-1; genotype 2a) in cell culture. […] We have developed this model for determining the efficacy of antiviral compounds against an infectious virus in vitro using HCV producing cells (HPC), a proprietary Huh-7-derived cell sublineage capable of propagating the JFH-1 HCV virus. The readout of the assay is quantification of HCV core protein by ELISA 5 days post infection with JFH-1 virus and treatment with a test compound.
Ninety-six-well Corning Costar plates were seeded with HPC cells at a density of 3.0×10^3 cells per well in 50 μL of Huh-7 media. Compound stock solutions were made up freshly in Huh-7 media (DMEM (containing glucose, L-glutamine and sodium pyruvate), 10% FBS, 100 IU/mL penicillin, 100 μg/mL streptomycin, 2 mM GlutaMAX, 1% MEM non-essential amino acids) as 2× stock. Seven additional 3-fold drug dilutions were prepared from the 2× stocks in Huh-7 media. At least 4 hours after HPC cells were seeded, the media in the 96-well culture plates was aspirated and 50 μL of each drug dilution and 50 μL of JFH-1 HCV was added to each well.
At 16 hrs post treatment and infection, the virus inoculum was removed by aspiration. The cultures were treated at the same final concentrations of drug diluted to 1× in Huh-7 media to a final volume of 200 μL. Cells were incubated in the presence of drug for 4 additional days at 37° C./5% CO2.
Media was removed from the plates by aspiration. Cells were fixed with 250 μL 1:1 acetone:methanol for 90 seconds, washed once in PBS and then three times with 1×KPL wash solution. The assay plates were then blocked with 150 μL/well 10% FBS-TNE (50 mM Tris-HCl (pH 7.5; Sigma), 100 mM NaCl, 1 mM EDTA with 10% FBS) for 1 hr at room temperature. Cells were washed three times with 1×KPL wash solution and incubated with 100 μL/well anti-hepatitis C core mAb (1 mg/mL stock diluted 1:500 in 10% FBS-TNE) for 2 hours at 37° C. Cells were washed three times with 1×KPL wash solution and incubated with 100 μL/well HRP-goat anti-mouse antibody (diluted 1:2,500 in 10% FBS-TNE) for 1 hr at 37° C.
OPD solution was prepared using 1 OPD tablet+12 mL citrate/phosphate buffer (16 mM citric acid, 27 mM Na2HPO4) plus 5 μL 30% H2O2 per plate. Cells were washed three times with 1×KPL wash solution and developed with 100 μL/well OPD solution for 30 minutes in the dark at room temperature. The reaction was stopped with 100 μL/well of 2NH2SO4, and absorbance measured at A490 nm in a Victor^3 V 1420 multilabel counter (Perkin Elmer). The EC50 values for each compound were calculated from dose response curves from the resulting best-fit equations determined by Microsoft Excel and XLfit 4.1 software. The negative control for inhibition of virus replication was untreated HPC cells infected with the JFH-1 HCV virus strain. The negative ELISA control was untreated, uninfected HPC cells. The positive ELISA control was untreated HPC cells infected the JFH-1 HCV virus strain.

HCV NS3-NS4A protease = molecular target: T1, HCV NS3-NS4A protease (Hepatitis C virus genotype 1b, UniProt P26663); assay: HCV Protease Assay (SensoLyte 620 HCV Protease Assay kit); format: biochemical; conditions: 1.2 nM HCV NS3-NS4A protease, 60 min at room temperature, 5% DMSO
T1 construct: made in house
T1 sequence (P26663 1027-1208): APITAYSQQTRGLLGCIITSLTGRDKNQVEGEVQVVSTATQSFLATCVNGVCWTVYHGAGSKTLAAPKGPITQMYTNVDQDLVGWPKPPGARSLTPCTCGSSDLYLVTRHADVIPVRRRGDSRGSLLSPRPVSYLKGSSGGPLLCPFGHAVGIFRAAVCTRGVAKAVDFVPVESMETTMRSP
How it was run: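 Protease at 1.2 nM, run with the SensoLyte 620 fluorogenic kit under supplier conditions, with compounds at several concentrations in buffer with 5% final DMSO. Reactions ran 60 min at room temperature before fluorescence reading; IC50 from four-parameter sigmoidal fit of percent inhibition.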

mutant protease R155Q = assay: Resistance profile, mutant protease R155Q; format: biochemical, HCV; conditions: ratio of inhibitory activity against mutant enzyme over non-mutant enzyme
Experimental: as §1, §2

[4] = system: Huh-7 cells containing HCV Con1 subgenomic replicon (GS4.1 cells); assay: HCV Replicon Assay (NS4A ELISA); format: cell-based; conditions: Hepatitis C virus, Huh-7, 72 hr, NS4A protein by ELISA
How it was run: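 GS4.1 cells (Huh-7 with HCV Con1 subgenomic replicon) given ten 2-fold compound dilutions (top 75 μM) or a single 15 μM dose in 0.5% DMSO for 72 h at 37 °C. NS4A measured by cell ELISA (A492); EC50 from four-parameter sigmoidal fit, single-dose results as % inhibition at 15 μM.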

[5] = genotype 1b replicon assay as described in Example 32, read-out: EC50

| SMILES | Fold-Change D168A (mutant protease D168A) | EC50 (genotype 1b replicon; [5]) [µM] | CC50 ([1]; GS4.1 cells) [µM] | Fold-Change A156S (mutant protease A156S) | CC50 [2] [µM] | EC50 [3] [µM] | IC50 (HCV NS3-NS4A protease) [µM] | Fold-Change R155Q (mutant protease R155Q) | EC50 [4] [µM] | EC50 (genotype 1b replicon) [µM] | CC50 [1] [µM] |
| --- | --- | --- | --- | --- | --- | --- | --- | --- | --- | --- | --- |
| COc1ccc2c(O[C@H]3C[C@H]4C(=O)N(C)CCCC/C=C\[C@@H]5C[C@@]5(C(=O)NS(=O)(=O)C5CC5)NC(=O)N4C3)cc(-n3ccc(C(F)(F)F)n3)nc2c1Cl [Compound 91e, (Z)-(4R,6S,15S,17S)-[17-[8-chloro-7-methoxy-2-(3-trifluoromethyl-1H-pyrazol-1-yl)quinolin-4-yloxy]-13-N-methyl-2,14-dioxo-1,3,13-triazatricyclo[13.3.0.0]octadec-7-ene-4-yl]carbonyl(cyclopropyl)sulfonamide] | C (C represents a value greater than 10) | < 1 | 10 to 75 | A (A represents a value smaller than 1) | > 75 | < 1 | < 1 | A (A represents a value smaller than 1) | < 1 |  |  |
| COc1ccc2c(O[C@H]3C[C@H]4C(=O)N(C)CCCC/C=C\[C@@H]5C[C@@]5(C(=O)NS(=O)(=O)C5(C)CC5)NC(=O)N4C3)cc(-c3nc(C(C)C)cs3)nc2c1Cl [Compound 56d, (Z)-(4R,6S,15S,17S)-[17-[8-chloro-7-methoxy-2-(4-isopropylthiazol-2-yl)quinolin-4-yloxy]-13-N-methyl-2,14-dioxo-1,3,13-triazatricyclo[13.3.0.0]octadec-7-en-4-yl]carbonyl(1-methyl-cyclopropyl)sulfonamide] | C (C represents a value greater than 10) |  | 10 to 75 | A (A represents a value smaller than 1) | > 75 | < 1 | < 1 | A (A represents a value smaller than 1) | < 1 | < 1 |  |
| COc1ccc2c(O[C@H]3C[C@H]4C(=O)N(C)CCCC/C=C\[C@@H]5C[C@@]5(C(=O)NS(=O)(=O)C5(C)CC5)NC(=O)N4C3)cc(-c3nc(C(C)C)cs3)nc2c1C [Compound 56b, (Z)-(4R,6S,15S,17S)-[17-[7-methoxy-8-methyl-2-(4-isopropylthiazol-2-yl)quinolin-4-yloxy]-13-N-methyl-2,14-dioxo-1,3,13-triazatricyclo[13.3.0.0]octadec-7-en-4-yl]carbonyl(1-methyl-cyclopropyl)sulfonamide] | C (C represents a value greater than 10) | < 1 |  | A (A represents a value smaller than 1) | > 75 | 1 to 10 | < 1 | A (A represents a value smaller than 1) | < 1 |  | 10 to 75 |
